Assay [1] addresses T1, Human DNA polymerase γ (Homo sapiens, UniProt P54098).
T1 construct: made in house
T1 sequence (P54098 1-1239): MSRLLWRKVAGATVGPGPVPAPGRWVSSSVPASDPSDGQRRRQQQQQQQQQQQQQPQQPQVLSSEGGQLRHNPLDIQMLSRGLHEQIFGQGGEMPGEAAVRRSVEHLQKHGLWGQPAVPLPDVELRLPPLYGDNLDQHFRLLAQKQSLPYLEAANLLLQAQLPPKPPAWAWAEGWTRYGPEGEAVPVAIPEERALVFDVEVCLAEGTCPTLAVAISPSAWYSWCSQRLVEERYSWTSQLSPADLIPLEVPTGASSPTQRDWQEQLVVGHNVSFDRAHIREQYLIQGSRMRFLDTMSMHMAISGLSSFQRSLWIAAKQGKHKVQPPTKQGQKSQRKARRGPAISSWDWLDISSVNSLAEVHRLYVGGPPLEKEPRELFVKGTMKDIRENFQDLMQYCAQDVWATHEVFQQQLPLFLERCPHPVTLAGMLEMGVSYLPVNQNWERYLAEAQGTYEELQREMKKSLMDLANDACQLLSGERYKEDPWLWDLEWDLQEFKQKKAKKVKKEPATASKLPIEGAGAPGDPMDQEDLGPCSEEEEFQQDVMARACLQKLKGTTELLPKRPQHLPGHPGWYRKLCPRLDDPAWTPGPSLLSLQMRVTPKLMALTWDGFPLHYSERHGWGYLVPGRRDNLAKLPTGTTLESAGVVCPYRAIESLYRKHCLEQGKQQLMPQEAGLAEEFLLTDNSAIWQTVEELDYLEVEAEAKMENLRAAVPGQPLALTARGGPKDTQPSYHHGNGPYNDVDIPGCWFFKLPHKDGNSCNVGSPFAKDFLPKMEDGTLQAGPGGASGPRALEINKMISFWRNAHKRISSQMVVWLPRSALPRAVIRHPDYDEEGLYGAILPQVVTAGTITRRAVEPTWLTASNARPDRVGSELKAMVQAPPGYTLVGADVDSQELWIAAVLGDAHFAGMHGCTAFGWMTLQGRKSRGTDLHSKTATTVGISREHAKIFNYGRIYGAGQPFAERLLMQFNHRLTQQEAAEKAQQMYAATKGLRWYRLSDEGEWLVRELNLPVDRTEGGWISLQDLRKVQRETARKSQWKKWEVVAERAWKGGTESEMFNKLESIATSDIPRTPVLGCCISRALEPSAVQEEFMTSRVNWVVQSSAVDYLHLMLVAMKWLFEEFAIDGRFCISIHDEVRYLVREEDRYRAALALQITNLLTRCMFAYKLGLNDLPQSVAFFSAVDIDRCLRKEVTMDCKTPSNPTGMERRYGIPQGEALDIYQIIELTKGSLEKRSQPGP
Details: method as in PMID 18312466, PMID 18698499, PMID 20030669, PMID 20881898. The note with it: earlier work of the authors; cited from earlier work.

In assay [2] the test system is TPA-induced edema on mouse ear. Kind of assay: TPA-induced mouse ear inflammatory test. The note with it: 250 or 500 μg applied to ear 30 min before TPA (0.5 μg); edema evaluated after 7 h; Figure 3. It is filed as in vivo. The protocol: All animal studies were performed according to the guidelines outlined in the “Care and Use of Laboratory Animals” of Kobe University. The animals were anesthetized with pentobarbital before undergoing cervical dislocation. Female 8-week-old C57BL/6 mice that had been bred in-house with free access to food and water were used for all experiments. All of the mice were maintained under a 12-h light/dark cycle and housed at a room temperature of 25 °C.
The mouse inflammatory test was performed according to Gschwendt’s method. In brief, an acetone solution of the VK2 and VK3 intermediates (250 or 500 μg in 20 μL) or 20 μL of acetone as a vehicle control was applied to the inner part of the mouse ear. Thirty minutes after the test compound was applied, a TPA solution (0.5 μg/20 μL of acetone) was applied to the same part of the ear. To the other ear of the same mouse, methanol, followed by TPA solution, was applied as a control. After 7 h, a disk (6 mm diameter) was obtained from the ear and weighed. The inhibitory effect (IE) is presented as a ratio of the increase in weight of the ear disks: IE=[(TPA only)−(tested compound plus TPA)]/[(TPA only)−(vehicle)]×100

In assay [3] the test system is LPS-induced production of TNF-α in RAW264.7 cells. Kind of assay: LPS-induced TNF-α production in mouse macrophages (ELISA). It is filed as cell-based. The note with it: 10 and 50 μM tested, concentration not specified, Figure 4. The protocol: A mouse macrophage cell line, RAW264.7, was obtained from American Type Culture Collection (ATCC) (Manassas, VA, U.S.). The cells were cultured in Eagle’s Minimum Essential Medium (MEM) supplemented with 4.5 g of glucose per liter plus 10% fetal calf serum, 5 mM L-glutamine, 50 units/mL penicillin and 50 units/mL streptomycin. The cells were cultured at 37 °C in standard medium in a humidified atmosphere of 5% CO2–95% air.
RAW264.7 cells were placed in a 12-well plate at 5 × 10^4 cells/well and incubated for 24 h. The cells were pretreated with the VK2 and VK3 intermediates (final concentrations of 10 and 50 μM) for 30 min before the addition of 100 ng/mL of LPS. After stimulation with LPS for 24 h, the cell culture medium was collected to measure the amount of TNF-α secreted. The concentration of TNF-α in the culture medium was quantified by using a commercially available enzyme-linked immunosorbent assay (ELISA) development system (Bay Bioscience Co., Ltd., Kobe, Japan) in accordance with the manufacturer’s protocol.
In general terms: In an ELISA, binding on a coated surface is turned into a signal by an enzyme label.

In assay [4] the target is T1, Human DNA polymerase γ. Briefly: DNA polymerase activity assay, human pol γ. It is filed as biochemical. As to conditions: 50 μM of each compound; Figure 2. As for the experimental part: Pols from mammals, a fish (cherry salmon), an insect (fruit fly) and a plant (cauliflower) were purified, and prokaryotic pols and other DNA metabolic enzymes, such as T7 RNA polymerase, T4 polynucleotide kinase and bovine deoxyribonuclease I, were purchased as described in our previous report. The activities of all pols and other DNA metabolic enzymes were measured as described in previous reports.
The components of the pol assay were poly(dA)/oligo(dT)18 and dTTP as the DNA template-primer and 2′-deoxyribonucleoside 5′-triphosphate (dNTP) substrate, respectively. VK2, VK3, and their synthesized derivatives (i.e., MK-3, MK-2 and MK-1) were dissolved in dimethyl sulfoxide (DMSO) at various concentrations and sonicated for 30 s. The sonicated samples (4 μL) were mixed with 16 μL of each pol enzyme (final amount, 0.05 units) in 50 mM Tris-HCl (pH 7.5) containing 1 mM dithiothreitol, 50% glycerol and 0.1 mM EDTA, and kept at 0 °C for 10 min. These inhibitor–enzyme mixtures (8 μL) were added to 16 μL of each standard enzyme reaction mixture (50 mM Tris-HCl [pH 7.5], 1 mM dithiothreitol, 1 mM MgCl2, 15% glycerol, 10 μM poly(dA)/oligo(dT)18 and 10 μM [^3H]-dTTP), and incubation was carried out at 37 °C for 60 min, except for Taq pol, which was incubated at 74 °C for 60 min. Activity without the inhibitor was considered to be 100%, and the activity remaining at each concentration of inhibitor was determined relative to this value. One unit of pol activity was defined as the amount of enzyme that catalyzed the incorporation of 1 nmol dNTP (dTTP) into the synthetic DNA template-primer (poly(dA)/oligo(dT)18, A/T = 2/1) in 60 min at 37 °C under normal reaction conditions for each enzyme (scintillation counts: approximately 1 pmol of incorporated radioactive nucleotides = 100 cpm).

A further assay concerns the target T2, Human DNA polymerase λ (Homo sapiens, UniProt Q9UGP5).
T2 construct: made in house
T2 sequence (Q9UGP5 1-575): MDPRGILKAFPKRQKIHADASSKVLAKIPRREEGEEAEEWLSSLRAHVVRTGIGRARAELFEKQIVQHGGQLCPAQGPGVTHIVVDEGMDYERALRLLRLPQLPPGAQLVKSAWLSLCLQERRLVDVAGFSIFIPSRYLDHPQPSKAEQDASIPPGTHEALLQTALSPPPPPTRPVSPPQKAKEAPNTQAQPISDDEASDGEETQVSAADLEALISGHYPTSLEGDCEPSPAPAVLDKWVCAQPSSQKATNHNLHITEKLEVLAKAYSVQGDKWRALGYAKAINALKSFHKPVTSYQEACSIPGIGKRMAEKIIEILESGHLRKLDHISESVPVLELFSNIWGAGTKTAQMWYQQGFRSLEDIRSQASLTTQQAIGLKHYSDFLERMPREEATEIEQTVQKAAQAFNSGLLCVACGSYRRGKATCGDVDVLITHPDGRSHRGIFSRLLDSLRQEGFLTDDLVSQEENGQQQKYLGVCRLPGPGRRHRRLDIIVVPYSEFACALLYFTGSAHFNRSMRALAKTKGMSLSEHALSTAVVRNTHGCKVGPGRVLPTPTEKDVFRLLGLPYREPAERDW
Details: method as in PMID 19502749, PMID 14599551. The note with it: reported previously; cited from earlier work.

Each structure is given as a SMILES string.

`CC1=C(C/C=C(\C)CCC[C@H](C)CCC[C@H](C)CCCC(C)C)C(=O)c2ccccc2C1=O` [VK1, phylloquinone]: at Human DNA polymerase γ [1], the “Inhibitor of human pol γ” value is listed as “not”.
For the compound `CC1=CC(=O)c2ccccc2C1=O` [VK3, menadione, reference compound], the “Anti-inflammatory activity toward TPA-induced edema on mouse ear” value in assay [2] is reported as “weak effect”. Also, in assay [3], the “Inhibitory effect on LPS-stimulated TNF-α production” value was “moderate inhibitory effect”. In addition, on Human DNA polymerase γ [1], the “Inhibitor of human pol γ” value was “potent and specific inhibitor”. Further, the “Inhibitory effect on human pol γ activity” value on Human DNA polymerase γ [4] is “selectively inhibited pol γ”.
As to `COc1cc(/C=C/C(=O)CC(=O)/C=C/c2ccc(O)c(OC)c2)ccc1O` [curcumin], the “Inhibitor of pol λ (selectivity)” value on Human DNA polymerase λ is listed as “pol-λ-specific inhibitor”.
